pIC50: −log10 of the molar value. Where a name gives a salt, the structure may show the parent alone. Read-outs that look alike come from different tables or passages of the source.
What was measured:
[1] = biological target: T1, aromatase (Homo sapiens, UniProt P11511); experiment: In vitro inhibition of the aromatase activity test (conversion of 1,2[3H]-androstenedione into estrone and estradiol, human placental microsomes); format: biochemical; details: 30 min at 37°C, concentration required to obtain 50% inhibition of the estrogen synthesis, read-out: Aromatase in vitro IC₅₀
T1 construct: from tissue; host or cells: human placental microsomes
T1 sequence (P11511 1-503): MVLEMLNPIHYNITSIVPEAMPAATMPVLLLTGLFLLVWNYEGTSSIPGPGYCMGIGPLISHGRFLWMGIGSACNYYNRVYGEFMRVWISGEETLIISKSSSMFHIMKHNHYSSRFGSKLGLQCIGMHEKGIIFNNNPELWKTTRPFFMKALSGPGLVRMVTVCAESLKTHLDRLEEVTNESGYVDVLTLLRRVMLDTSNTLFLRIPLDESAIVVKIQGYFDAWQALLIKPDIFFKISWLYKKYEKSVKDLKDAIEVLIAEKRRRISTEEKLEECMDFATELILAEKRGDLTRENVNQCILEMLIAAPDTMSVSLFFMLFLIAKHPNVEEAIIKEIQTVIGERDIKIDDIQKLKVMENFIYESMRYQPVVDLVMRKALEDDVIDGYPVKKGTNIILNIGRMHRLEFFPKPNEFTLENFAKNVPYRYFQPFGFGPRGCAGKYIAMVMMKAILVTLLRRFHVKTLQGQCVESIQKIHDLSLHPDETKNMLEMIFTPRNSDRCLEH
Method: Human placental microsomes were diluted in potassium phosphate buffer (0.1M, pH 7.4) to give about 50% conversion of androgens to estrogens (protein content : about 0.5 mg). Four ml human placental microsomes were incubated in a final volume of 5 ml with 0.2 µCi 1,2[³H]-androstenedione, 2 µg androstenedione and 5 µl of test compound and/or dimethylsulfoxide (DMSO). […] The reaction was initiated by the addition of androstenedione and proceeded for 30 min at 37°C. During the incubation period, the mixtures were gassed with air. In this assay, aromatization of androstenedione results in the production of [3H]-H₂O which is isolated by extracting the samples with chloroform to remove the free steroid.

[2] = biological target: T2, aromatase (Rattus norvegicus, UniProt P22443); experiment: In vivo inhibition of the aromatase activity (plasma estradiol in PMSG-injected immature female rats); design: species or system Wistar rats; details: read-out: Aromatase in vivo % inhibition at 1 mg/kg
T2 construct: Immature female Wistar rats weighing 120 g were injected subcutaneously; from tissue; host or cells: whole animal: immature female Wistar rats primed with PMSG (endogenous, mainly ovarian, aromatase by own knowledge)
T2 sequence (P22443 1-508): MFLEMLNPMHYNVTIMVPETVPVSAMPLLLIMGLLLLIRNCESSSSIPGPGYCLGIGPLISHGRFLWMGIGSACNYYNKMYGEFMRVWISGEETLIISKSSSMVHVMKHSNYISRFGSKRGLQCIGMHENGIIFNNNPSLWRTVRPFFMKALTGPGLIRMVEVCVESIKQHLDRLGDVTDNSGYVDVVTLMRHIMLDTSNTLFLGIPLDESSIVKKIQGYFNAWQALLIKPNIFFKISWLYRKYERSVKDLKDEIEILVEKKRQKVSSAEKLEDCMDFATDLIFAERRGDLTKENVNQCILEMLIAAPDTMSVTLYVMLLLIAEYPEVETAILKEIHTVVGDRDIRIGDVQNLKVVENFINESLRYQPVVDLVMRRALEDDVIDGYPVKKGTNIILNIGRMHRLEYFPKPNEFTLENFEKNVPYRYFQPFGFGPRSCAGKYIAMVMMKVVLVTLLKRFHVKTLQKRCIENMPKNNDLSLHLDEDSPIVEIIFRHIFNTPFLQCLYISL
Method: Immature female Wistar rats weighing 120 g were injected subcutaneously with 200 I.U. of pregnant mare's serum gonadotropin (PMSG). Ninety hours later, 1 mg/kg of the test compound dissolved in 0.5 ml 20% polyethyleneglycol in water was administered by oral gavage. Control animals received 20% polyethyleneglycol only. Two hours following drug or placebo administration the rats were killed by decapitation and trunk blood was collected on heparine. Plasma estradiol concentrations were measured by standard radio-immunological procedures. […]

[3] = 1 mg/kg by oral gavage, immature female Wistar rats 90 h after PMSG, plasma estradiol two hours after administration, relative to controls

Row | pIC50 [1] | inhibition at 1 mg/kg [2, 3] | SMILES | inhibition at 1 mg/kg ([2]; po)
1 | 7.53 | 92% | CCCOn1nnc2ccc(C3CCCc4cncn43)cc21 (stereo not shown) [Compound 3] | –
2 | 7.43 | 94% | CCOn1nnc2ccc(C3CCCc4cncn43)cc21 (stereo not shown) [Compound 4] | –
3 | 7.55 | 95% | C=CCOn1nnc2ccc(C3CCCc4cncn43)cc21 (stereo not shown) [Compound 5] | –
4 | 7.23 | 86% | CC(C)COn1nnc2ccc(C3CCCc4cncn43)cc21 (stereo not shown) [Compound 6] | –
5 | 7.24 | 89% | COn1nnc2ccc(C3CCCc4cncn43)cc21 (stereo not shown) [Compound 9] | –
6 | 7.50 | 88% | CCCCOn1nnc2ccc(C3CCCc4cncn43)cc21 (stereo not shown) [Compound 10] | –
7 | 7.60 | 85% | C=C(C)COn1nnc2ccc(C3CCCc4cncn43)cc21 (stereo not shown) [Compound 12] | –
8 | 7.53 | 80% | C#CCOn1nnc2ccc(C3CCCc4cncn43)cc21 (stereo not shown) [Compound 14] | –
9 | 7.46 | 88% | N#CCCCCOn1nnc2ccc(C3CCCc4cncn43)cc21 (stereo not shown) [Compound 18] | –
10 | 7.41 | 87% | CCC(C)On1nnc2ccc(C3CCCc4cncn43)cc21 (stereo not shown) [Compound 20] | –
11 | > 6.00 | 88% | OCCOn1nnc2ccc(C3CCCc4cncn43)cc21 (stereo not shown) [Compound 21] | –
12 | 7.05 | 93% | Cn1nnc2ccc(C3CCCc4cncn43)cc21 (stereo not shown) [Compound 23] | –
13 | 7.27 | 93% | CCn1nnc2ccc(C3CCCc4cncn43)cc21 (stereo not shown) [Compound 26, 1-ethyl-6-(5,6,7,8-tetrahydroimidazo[1,5-a]pyridin-5-yl)-1H-benzotriazole monohydrochloride] | –

Continued, compound first:

Row | SMILES | pIC50 [1] | inhibition at 1 mg/kg [2, 3] | inhibition at 1 mg/kg ([2]; po)
14 | N#Cc1ccc(COn2nnc3ccc(C4CCCc5cncn54)cc32)cc1 (stereo not shown) [Compound 2] | 7.35 | 96% | –
15 | c1cc2nnn(OCC3CC3)c2cc1C1CCCc2cncn21 (stereo not shown) [Compound 8, 1-(cyclopropylmethoxy)-6-(5,6,7,8-tetrahydroimidazo[1,5-a]pyridin-5-yl)-1H-benzotriazole mononitrate] | 7.50 | – | 87%
16 | CCCCn1nnc2ccc(C3CCCc4cncn43)cc21 (stereo not shown) [Compound 24] | 7.50 | 89% | –
17 | CC(C)n1nnc2ccc(C3CCCc4cncn43)cc21 (stereo not shown) [Compound 25] | 7.25 | 91% | –
18 | CCCCCCn1nnc2ccc(C3CCCc4cncn43)cc21 (stereo not shown) [Compound 27] | 7.60 | 86% | –
19 | c1cc2nnn(C3CCCC3)c2cc1C1CCCc2cncn21 (stereo not shown) [Compound 30] | 7.37 | 93% | –
20 | CCCn1nnc2ccc(C3CCCc4cncn43)cc21 (stereo not shown) [Compound 31] | 7.36 | 96% | –
21 | CC(C)(C)n1nnc2ccc(C3CCCc4cncn43)cc21 (stereo not shown) [Compound 32] | 7.27 | 95% | –
22 | CC(C)Cn1nnc2ccc(C3CCCc4cncn43)cc21 (stereo not shown) [Compound 33] | 7.34 | 96% | –
23 | c1cc2nnn(C3CCCCC3)c2cc1C1CCCc2cncn21 (stereo not shown) [Compound 35] | 7.39 | 98% | –
